The values that follow come from a melting point compilation (Tetko et al.).

The structures appear in SMILES notation.

One may read the melting point as the temperature of the solid-liquid transition. Take `S=C1NCCO1`: the melting point lay within 95 to 97 °C.
In the case of `O=C(CCl)Nc1nc2ccc(F)cc2s1`, the melting point is 170 to 172 °C.
Molecule `CC(C)(C)S(=O)(=O)CC(=O)O` had a melting point of 89 to 91 °C.
The same measure for `Cc1ccncc1-n1ccnc1`: 64 to 66 °C; for `Nc1cc(Cl)cc([N+](=O)[O-])c1O`: 152 to 154 °C; for `N#Cc1cc(F)cc(F)c1[N+](=O)[O-]`: 95 to 97 °C.
The same measure for `CC(NC(=O)c1cc(F)ccc1N)c1ccc(C#N)cc1` (configuration not stated): 139 to 141 °C; for `NS(=O)(=O)c1ccc(-c2ccc(Br)cc2)cc1`: 207 to 209 °C; for `Cc1cc(N)ncn1`: 186 to 188 °C.
For `COc1cc2c(cc1OC)S(=O)(=O)NC2=O`, the melting point lay in the range of 279 to 281 °C.
`O=Cc1cc2c(cc1[N+](=O)[O-])OCCO2` registered a melting point of 169 to 171 °C.
With `Nc1nnc(-c2ccccc2)o1` the figure was 243 to 245 °C.
In turn, `Cc1ccccc1-c1nnc(N)[nH]1` displayed a melting point of 219 to 221 °C.
The same measure for `O=C(O)c1cccc(NC(=O)C2CCCCC2)c1`: 228 to 230 °C.
With `COc1cc(C(=O)O)c(N)cc1OC(F)F` the figure was 152 to 154 °C.
With `O=C(O)CCc1nc(-c2cccs2)no1` the figure was 108 to 110 °C.
In the case of `Cc1cc(=O)[nH]c(-c2cccc(N)c2)n1`, the melting point was in the range of 212 to 214 °C.
With `COc1ccc(-c2[nH]c3ccccc3c2CCC(=O)O)c(OC)c1` the figure was 167 to 169 °C; with `NC(=O)c1ccc(=O)[nH]n1`, 326 to 328 °C.
With `Cc1ccc(-n2nc(N)cc2C)cc1` the figure was 99 to 101 °C; with `O=C(O)Cc1c[nH]c2ccc(F)cc12`, 139 to 141 °C.
The same measure for `NNS(=O)(=O)c1ccc(Br)cc1`: 225 to 227 °C; for `c1cnn(-c2ccc(N3CCNCC3)nn2)c1`: 161 to 163 °C.
`COC(=O)c1cc2c(Br)ccc(F)c2[nH]1` returned a melting point of 189 to 191 °C.
With `NC(C(=O)O)c1ccc(Cl)cc1Cl` (configuration not stated) the figure was 215 to 217 °C.
`CC(C)(C)c1nc(C#N)c(NN)o1` displayed a melting point of 164 to 166 °C.
`CN(C)c1ccc(C(N)=O)cc1` gave a melting point of 207 to 209 °C.
Regarding `Cc1cc(S(=O)(=O)Cl)cc(C(=O)O)c1Cl`, the melting point lay in the range of 169 to 171 °C.
`Nc1cc(C(F)(F)F)ccc1-n1cccn1`: the melting point lay in the range of 40 to 48 °C.
With `Cc1cc(-n2c(C)c[nH]c2=O)no1` the figure was 134 to 136 °C; with `CCOC(=O)c1c(N)sc(C)c1CC(C)CC` (configuration not stated), 77 to 79 °C.
`Cc1cc(C(=O)O)nn1-c1ccccc1Cl`: the melting point was in the range of 179 to 181 °C.
The same measure for `O=C(O)C1CC(=O)N(c2ccc(Br)cc2)C1` (configuration not stated): 173 to 175 °C; for `NCCS(=O)(=O)c1ccc(Br)cc1`: 87 to 89 °C.
Take `CCOC(=O)c1cc(N)[nH]n1`: the melting point lay in the range of 118 to 120 °C.
The molecule `Cc1ccc(NN)nn1` showed a melting point of 107 to 109 °C.
With `CC1(C)CNc2ccccc2S1`, the melting point was 41 to 43 °C.
In turn, `COC(=O)c1ccc(-n2c(C)cc(C(=O)CCl)c2C)cc1` registered a melting point of 157 to 159 °C.
With `CCOc1ccc(C=CCN)cc1` the figure was 46 to 48 °C; with `CNC1(c2ccccc2Cl)CCCC(=Cc2cccs2)C1=O` (configuration not stated), 129 to 131 °C; with `COc1ccc(SCCC(=O)O)cc1`, 81 to 83 °C.
Turning to `CN(C)C(=O)Nc1ccc(C(=O)O)c(Cl)c1`, the melting point was in the range of 191 to 193 °C.
For `Cc1cc(C=O)c(C)[nH]1`, the melting point lay in the range of 139 to 141 °C.
Turning to `O=C(O)c1cnnn1-c1ccccc1Cl`, the melting point lay in the range of 174 to 176 °C.
With `COc1cc(C=O)ccc1OCC(=O)N1CCOCC1` the figure was 98 to 100 °C.
Molecule `O=CN1CCc2cc(C(=O)CCl)ccc21` yielded a melting point of 146 to 148 °C.
The same measure for `CC(=O)c1cnc2ccnn2c1C`: 80 to 82 °C; for `Nc1cc(S(N)(=O)=O)ccc1S`: 220 to 222 °C; for `C#CCSc1cccc(C(=O)O)c1`: 121 to 123 °C.
Consider `Cc1ccn2cc(C(=O)O)nc2c1`, for which the melting point lay within 225 to 229 °C.
With `COc1ccc(C(=O)Oc2ccc(C=O)cc2OC)cc1` the figure was 95 to 98 °C; with `O=CC(C=O)SCc1ccccc1`, 128 to 130 °C; with `CNc1ncc(Br)cn1`, 116 to 118 °C.
Molecule `Nc1nc(-c2cccc(C(F)(F)F)c2)n[nH]1` returned a melting point of 221 to 223 °C.
With `O=C(Nc1sccc1C(=O)O)c1ccc(Cl)cc1O` the figure was 244 to 246 °C.
The same measure for `Cc1cc(N)nn1-c1ccc(F)cc1`: 70 to 72 °C; for `O=C(NNc1ccccc1)Nc1ccccc1`: 178 to 180 °C.
Take `Cc1ccnc(-n2cc(S(=O)(=O)Cl)cn2)c1`: the melting point fell in the range of 104 to 106 °C.
For `Cc1c(C)c(C)c(C(=O)CCl)c(C)c1C`, the melting point lay within 70 to 72 °C.
As to `O=C1CCSc2c(F)ccc(F)c21`, the melting point is 111 to 113 °C.
With `Cc1[nH]c2ccccc2c1C1CCNCC1` the figure was 222 to 224 °C; with `CC(=O)Nc1cc(S(=O)(=O)Cl)ccc1C`, 145 to 147 °C.
The same measure for `Nc1c(F)cccc1-n1cncn1`: 103 to 105 °C; for `O=[N+]([O-])c1ccc(Br)c2c1CNCC2`: 81 to 83 °C.
The same measure for `Nc1ccc(Cl)c(C(=O)NCc2ccccc2F)c1`: 95 to 97 °C; for `Sc1nccn1Cc1ccccc1`: 146 to 148 °C.
As to `CS(=O)(=O)c1cc(S(=O)(=O)Cl)ccc1F`, the melting point fell in the range of 112 to 114 °C.
For the molecule `O=C(NC1(C(=O)O)CCCC1)c1ccc2[nH]ncc2c1`, the melting point was 285 to 287 °C.
With `NC(=S)c1cccc(O)c1` the figure was 152 to 154 °C; with `Nc1cccc(N2C(=O)CNC2=O)c1`, 156 to 158 °C.
On to `NCC(O)Cc1ccccc1` (configuration not stated), for which the melting point is 67 to 69 °C.
In turn, `O=C(O)c1cc(S(=O)(=O)Cl)cc(Cl)c1F` yielded a melting point of 169 to 171 °C.
The same measure for `CC(=O)NC1(C(=O)O)CCCCCC1`: 196 to 198 °C; for `CCOC(=O)C(NC(=O)c1ccc(Cl)c(Cl)c1)C(C)O` (configuration not stated): 68 to 70 °C.
On to `CNC1CCN(c2ccc(Cl)cc2)CC1`, for which the melting point was in the range of 49 to 51 °C.
The same measure for `O=C(O)c1ccc2c(c1)C(=O)NC2=O`: 267 to 269 °C; for `O=C1CCc2c(OCc3ccccc3)cccc21`: 71 to 73 °C.
`Nc1cc(-c2ccccc2I)no1` had a melting point of 120 to 122 °C.
For `Cc1cc(C(=O)O)c2ccc(F)cc2n1`, the melting point was in the range of 267 to 269 °C.
Molecule `O=C(O)CN1C(=O)CSc2ccccc21` yielded a melting point of 151 to 153 °C.
`COC(=O)C1=NOC(C(=O)O)C1` (configuration not stated) had a melting point of 83 to 85 °C.
With `Nc1cc(C(F)(F)F)ccc1O` the figure was 115 to 117 °C; with `Nc1cc(-c2cc(F)cc(Br)c2)[nH]n1`, 104 to 106 °C.
The same measure for `Cc1ccc(C#N)nc1Br`: 130 to 132 °C.
`NC(=O)Nc1ccc(N)cc1` returned a melting point of 155 to 157 °C.
The same measure for `O=C(O)Cc1csc(-c2ccc3c(c2)OCCO3)n1`: 188 to 190 °C; for `CC(NCc1ccc(F)cc1)C(=O)O` (configuration not stated): 283 to 285 °C; for `CN(C(=O)c1ccccc1N)C1CCCCC1`: 141 to 143 °C.
The same measure for `Cn1c(Cl)nc2ccccc2c1=O`: 109 to 111 °C.
On to `CN(C)CC(O)Cn1cc(N)cn1` (configuration not stated), for which the melting point was 68 to 70 °C.
With `O=C(O)c1ccc(CN2CCC(O)CC2)cc1` the figure was 219 to 221 °C; with `O=Cc1cc(CCl)ccc1O`, 87 to 89 °C; with `O=C(C(Cl)c1ccccc1)N1CCCCC1` (configuration not stated), 63 to 74 °C.
With `Cc1cc(N2CCNCC2)nc(C(C)C)n1`, the melting point was in the range of 42 to 46 °C.
The same measure for `Cc1cc(Br)cc(C)c1NCc1ncc[nH]1`: 142 to 144 °C.
`NNc1ccc(C(F)(F)F)nn1` gave a melting point of 132 to 134 °C.
With `O=C1CCNc2ccc(F)cc2N1` the figure was 147 to 149 °C.
In turn, `Cc1cc(C(=O)CCC(=O)O)c(C)s1` came in with a melting point of 105 to 108 °C.
The same measure for `CC(=O)c1ccc(Oc2ccc(Br)cc2)cc1`: 79 to 81 °C; for `CC(C)N1N=C(C(=O)O)CCC1=O`: 131 to 133 °C; for `CC(C)(C)OC(=O)NCC#N`: 53 to 57 °C.
The molecule `COC(=O)c1ccc(Br)c(C)c1N` showed a melting point of 79 to 81 °C.
With `O=S(=O)(Cl)CCS(=O)(=O)c1ccccc1` the figure was 172 to 174 °C; with `O=C(O)C(NS(=O)(=O)c1cccc(Cl)c1)c1ccccc1` (configuration not stated), 168 to 170 °C.
`Cn1c(=O)c(CBr)nc2ccccc21` displayed a melting point of 179 to 181 °C.
With `O=C(O)c1cccc(N2CC=CC2)c1` the figure was 193 to 195 °C; with `CCOC(=O)c1cn[nH]c1S(N)(=O)=O`, 171 to 173 °C.
As for `O=[N+]([O-])c1ccc(-c2nc(CCl)co2)cc1`, the melting point is 119 to 121 °C.
As to `O=C(O)c1cccc(-c2noc(C3CC3)n2)c1`, the melting point fell in the range of 158 to 160 °C.
The same measure for `Nc1cccc(NS(=O)(=O)c2ccc(Cl)cc2)c1`: 112 to 114 °C; for `Clc1ccccc1Nc1nc2ccccc2s1`: 126 to 128 °C.
With `Cc1ccc(S(=O)(=O)Nc2ccccc2Br)cc1` the figure was 88 to 90 °C; with `Cc1nc(COc2ccc(C(=O)O)cc2)no1`, 197 to 199 °C; with `O=C(O)CN1CC(=O)Nc2ccccc21`, 218 to 220 °C.
The same measure for `COC(=O)c1sc(N)c(C(=O)OC)c1CBr`: 163 to 165 °C; for `NS(=O)(=O)NCC1CCCNC1` (configuration not stated): 132 to 134 °C.
Take `COc1ccc(/C=C/C(=O)O)cc1S(=O)(=O)Cl`: the melting point is 184 to 186 °C.
The same measure for `NS(=O)(=O)c1ccc(C(=O)O)cc1Cl`: 231 to 233 °C.
With `N#Cc1cccc(/C=C/C(=O)O)c1` the figure was 246 to 248 °C; with `CCOC(=O)c1csc(Nc2ccc(OC)cc2)n1`, 117 to 119 °C; with `Nc1cccc(CN2CCC(CO)CC2)c1`, 89 to 91 °C.
The same measure for `CCC(N)C(=O)NC(CC)c1ccc(C)cc1` (configuration not stated): 59 to 61 °C.
